Data set [1] deals with mice. Briefly: Acute toxicity by intravenous administration. The settings on record: intravenously administered to tail vein in mice at the dose of 50 mg/kg. It counts as in vivo.
Data set [2] deals with PAF-induced platelet aggregation. Briefly: Inhibitory effect on PAF-induced platelet aggregation (platelet rich plasma, Born aggregometer). It counts as cell-based. The settings on record: Cavia porcellus; platelet rich plasma of male guinea-pig; PAF (10nM)-induced aggregation; absorbancy method. As to the method: (1) Inhibitory effect on PAF-induced platelet aggregation
Whole blood of male guinea-pig was collected with a 3.8%. aqueous solution of trisodium citrate in a proportion of 9:1 (v/v) and the mixture was centrifuged for 10 minutes at room temperature (120 x g) to obtain platelet rich plasma. Using obtained plasma, PAF (10nM)-induced aggregation was determined by the absorbancy method using an aggregometer of Born (cf. J. Physiol., 162, 67 (1962)) .
The evaluation is conducted using the concentration of compounds of the present invention required to produce a 50% inhibition of each effect, i.e. IC50.

Structures are written as SMILES. Structures can show the parent of a compound that is named as a salt.

On to `CCCCCCCCCCCCCCCCOCC(COCCCCCCC[N+](C)(C)C)OCC` (racemic) [5(a), (2RS)-1-0-hexadecyl-2-0-ethyl-3-0-[7-(trimethylammonio)heptyl]glycerol·methanesulfonic acid salt], for which the “mortality (dead/used)” value in data set [1] is given as 0/5.

As for `CCCCCCCCCCCCCCCCOCC(CCC)COCCCC[N+](C)(C)C` (racemic) [Example 2, (2RS)-1-0-hexadecyl-2-dehydroxy-2-n-propyl-3-0-[4-(trimethylammonio)butyl]glycerol·iodide], the IC50 (in general, the concentration that gives 50% inhibition) in data set [2] came to 5300 nM. This lies in the single-digit micromolar range. The same measure, in the same setting: in the case of `C=CCOC(COCCCCCCCCCCCCCCCC)COCCCC[N+](C)(C)C` (racemic) [Example 7, (2RS)-1-0-hexadecyl-2-0-allyl-3-0-[4-(trimethylammonio)butyl] glycerol·iodide] it was 3800 nM. Consider `CCCCCCCCCCCCCCCCOCC(COCCCC[N+](C)(C)C)C(C)C` (racemic) [Example 2(b), (2RS)-l-0-hexadecyl-2-dehydroxy-2-iso-propyl-3-0-[4-(trimethylammonio)butyl]glycerol·iodide], for which, in data set [1], the “mortality (dead/used)” value is given as 2/5. Turning to `CCCCCCCCCCCCCCCCOCC(COCCCCCCC[N+](C)(C)C)OCCC` (racemic) [5(b), (2RS)-1-0-hexadecyl-2-0-n-propyl-3-0-(7-(trimethylammonio)heptyl]glycerol·methanesulfonic acid salt], half-maximal inhibition in data set [2] (IC50) required 1800 nM. In addition, the “mortality (dead/used)” value in data set [1] is 0/5.

In data set [2], `CCCCCCCCCCCCCCCCOCC(COCCCCCCC[N+](C)(C)C)OC` (racemic) [Example 5, (2RS)-1-0-hexcadecyl-2-0-methyl-3-0-[7-(trimethylammonio)heptyl] glycerol·methanesulfonic acid salt] showed an IC50 of 1300 nM. The “mortality (dead/used)” value in data set [1] was 0/5.

Source of the values: EP0142333A2, “Glycerol derivatives” (ONO PHARMACEUTICAL CO., LTD., priority 1983, dated 1985).
